We go through eight compounds from PubChem BioAssay (NCI).

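Step 1: Grow cells in 96-well plates. Step 2: Expose to compound for 48 hours at 5 concentrations. Step 3: Interpolate endpoints linearly; if unreached, use highest concentration. TGI: concentration producing complete growth inhibition.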

Assay in all cases: NCI anticancer screen, dose series, 48 h
Experiment [1] relates to LOX IMVI melanoma.
Experiment [2] deals with TK-10 renal.
Experiment [3] relates to HOP-62 NSCLC.
Experiment [4] deals with DU-145 prostate.
Experiment [5] has as its system HL-60(TB) leukemia.
Experiment [6] has as its system CAKI-1 renal.
Experiment [7] concerns K-562 leukemia.
Experiment [8] deals with HS 578T breast.
Experiment [9] relates to A549 NSCLC.
The test system of experiment [10] is A498 renal.
The test system of experiment [11] is SF-295 CNS.
Experiment [12] has as its system NCI-H226 lung.
Experiment [13] relates to MOLT-4 leukemia.
The test system of experiment [14] is NCI-H522 lung.
The test system of experiment [15] is ACHN renal.
Experiment [16] deals with HCT-116 colon.
Experiment [17] relates to SF-268 CNS.
For experiment [18], the system named is COLO 205 colon.
Experiment [19] relates to NCI-H23 lung.
Experiment [20] relates to SR leukemia.

For `Cc1c(C#N)c2ccccc2c2nc3ccccc3n12`, the TGI in experiment [1], in [2], in experiment [3], in [4], in experiment [5] and in [6] was greater than 100 µM throughout. In addition, the TGI in [7], in experiment [8], in experiment [9], in [10], in experiment [11] and in [12] was greater than 100 µM each time. Moreover, the TGI in [13], in experiment [14], in [15] and in [16] was greater than 100 µM in each case.

As for `COc1ccc(N(CN2C(=O)CCC2C(=O)O)C(C)=O)cc1` (stereo not drawn), the TGI in experiment [17], in [1], in [2], in experiment [3], in experiment [4] and in experiment [5] was greater than 100 µM throughout. The TGI in experiment [6], in experiment [7], in [8], in experiment [9], in experiment [10] and in experiment [11] was greater than 100 µM in each case. The TGI in experiment [12], in experiment [18], in [13], in experiment [14], in experiment [19] and in experiment [15] was greater than 100 µM in each case. In experiment [16], this compound returned a TGI greater than 100 µM.

Take `CCOC(O)(NC(=O)C(C(F)(F)F)C(F)(F)F)C(F)(F)F` (stereo not drawn): the TGI in [17], in experiment [1], in [2], in experiment [5], in experiment [7] and in [8] was greater than 100 µM in each case. In addition, the TGI in [9], in experiment [10], in experiment [18], in [13], in [20] and in experiment [19] was greater than 100 µM in each case. In addition, the TGI in [15] and in experiment [16] was greater than 100 µM in each case.

`O=S(=O)(N/N=C1\CC2CCC1C2)c1ccccc1` (stereo not drawn): the TGI in [17], in experiment [1], in [2], in experiment [3], in experiment [4] and in [5] was greater than 100 µM each time. Moreover, the TGI in [6], in experiment [7], in experiment [8], in experiment [9], in experiment [11] and in [12] was greater than 100 µM in each case. The TGI in [18], in experiment [13], in [14], in [20], in experiment [19] and in experiment [15] was greater than 100 µM in each case. In addition, in experiment [16], the TGI was greater than 100 µM.

Take `CC(C)(C)OC(=O)CC(NC(=O)OC(C)(C)C)C(=O)N[C@@H]1CCCC[C@H]1C(=O)OCc1ccccc1` (stereo partly drawn): the TGI in [17] is greater than 100 µM; in [1], greater than 100 µM; in [2], 79.6 µM; in experiment [3], greater than 100 µM; in [4], 99.8 µM; in [5], 68.9 µM. The TGI in experiment [6] is greater than 100 µM; in experiment [7], greater than 100 µM; in [8], 48 µM; in experiment [9] it was 93.4 µM; in [11] it was 70.2 µM; in experiment [12], 60.3 µM. Further, the TGI in [18] is 38.2 µM; in [13], 89.1 µM; in experiment [20] it was greater than 100 µM; in experiment [19], 85.3 µM; in [15], greater than 100 µM; in [16], 52.5 µM.

For `CC(C)c1nc2cc(C(F)(F)F)ccc2[nH]c1=O`, the TGI in [17], in [2], in [3], in [5], in [6] and in experiment [7] was greater than 100 µM in each case. For the same compound, the TGI in [8] was 54.5 µM; in experiment [9] it was greater than 100 µM; in [10], greater than 100 µM; in [11] it was greater than 100 µM; in experiment [12], greater than 100 µM; in [18] it was greater than 100 µM. Moreover, the TGI in [13], in experiment [14], in experiment [20], in [19], in experiment [15] and in [16] was greater than 100 µM each time.

Consider `COC(=O)C(C)(C)OCc1ccc(C2NC(=O)N(c3cccc(Cl)c3)C(=O)N2c2cccc(Cl)c2)cc1` (stereo not drawn), for which the TGI in [17] is greater than 100 µM; in experiment [3] it was greater than 100 µM; in experiment [4], greater than 100 µM; in [6], greater than 100 µM; in experiment [7] it was greater than 100 µM; in experiment [8] it was 44.4 µM. For the same compound, the TGI is greater than 100 µM in [9]; greater than 100 µM in [11]; greater than 100 µM in [18]; greater than 100 µM in [13]; 76.8 µM in experiment [14]; 96.6 µM in [20]. The TGI in [19] was 22.1 µM; in experiment [15] it was greater than 100 µM; in experiment [16] it was greater than 100 µM.

On to `COC(=O)[C@H](Cc1ccccc1)NC(=O)N1CCCN(C(=O)N[C@@H](Cc2ccccc2)C(=O)OC)CCCN(C(=O)N[C@@H](Cc2ccccc2)C(=O)OC)CCC1`, for which the TGI in experiment [17] worked out at 34 µM; in experiment [1], 29.8 µM; in experiment [2] it was 65.4 µM; in experiment [3], 35.5 µM; in experiment [4], 34 µM; in experiment [5], 69.2 µM. For the same compound, the TGI in experiment [6] is greater than 100 µM; in experiment [7], greater than 100 µM; in [8] it was 44.6 µM; in experiment [9], 76.4 µM; in [10], 44.3 µM; in experiment [11], 37.6 µM. Moreover, the TGI came to 31.5 µM in experiment [12]; 34.8 µM in experiment [18]; 40.8 µM in [13]; 35.2 µM in [14]; 53.3 µM in experiment [19]; 31.3 µM in experiment [15]. The TGI in experiment [16] came out at 38.9 µM.
